Active and inactive are the calls of the source. No cut-off for these calls is given here.
How the values were obtained:
[1] = Cytotoxicity against human HepG2 cells after 24 hrs by neutral red dye uptake assay; assay type: cell-based; details: read-out: TC50
[2] = Apparent volume of distribution in CD1 albino mouse at 50 mg/kg, po; assay type: ADME, organism-based; parameters: dose 50 mg/kg, route oral; details: in vivo, read-out: Vc/F
[3] = tested on: Plasmodium berghei; experiment: Antimalarial activity against Plasmodium berghei ANKA expressing GFP infected in mouse assessed as mean survival days at 30 mg/kg, po administered QD for 3 days (reference value: 6 to 7 days); assay type: functional
[4] = Elimination half life in CD1 albino mouse liver at 50 mg/kg, po; assay type: ADME, organism-based; parameters: dose 50 mg/kg, route oral; details: read-out: beta t1/2 (converted)
[5] = tested on: Plasmodium berghei; experiment: Antimalarial activity against Plasmodium berghei ANKA expressing GFP infected in mouse assessed as mean survival days at 50 mg/kg, po administered QD for 3 days (reference value: 6 to 7 days); assay type: functional
[6] = tested on: Plasmodium berghei; experiment: Antimalarial activity against Plasmodium berghei ANKA expressing GFP infected in mouse assessed as reduction in parasitemia at 50 mg/kg, po administered QD for 3 days measured 24 hrs post-final dosing by flow cytometric analysis; assay type: functional; parameters: scale not given: the % may be the effect or the level left
[7] = tested on: Plasma; experiment: Drug uptake in CD1 albino mouse plasma at 50 mg/kg, po up to 48 hrs; assay type: ADME, organism-based; parameters: dose 50 mg/kg, route oral; details: in vivo
[8] = target: T1, Chloroquine resistance transporter (Plasmodium falciparum) (UniProt Q9N623); experiment: Inhibition of chloroquine-sensitive Plasmodium falciparum D10 CRT expressed in Xenopus laevis oocyte assessed as inhibition of [3H]chloroquine uptake at 100 uM measured from 1 to 2 hrs
T1 sequence (whole entry): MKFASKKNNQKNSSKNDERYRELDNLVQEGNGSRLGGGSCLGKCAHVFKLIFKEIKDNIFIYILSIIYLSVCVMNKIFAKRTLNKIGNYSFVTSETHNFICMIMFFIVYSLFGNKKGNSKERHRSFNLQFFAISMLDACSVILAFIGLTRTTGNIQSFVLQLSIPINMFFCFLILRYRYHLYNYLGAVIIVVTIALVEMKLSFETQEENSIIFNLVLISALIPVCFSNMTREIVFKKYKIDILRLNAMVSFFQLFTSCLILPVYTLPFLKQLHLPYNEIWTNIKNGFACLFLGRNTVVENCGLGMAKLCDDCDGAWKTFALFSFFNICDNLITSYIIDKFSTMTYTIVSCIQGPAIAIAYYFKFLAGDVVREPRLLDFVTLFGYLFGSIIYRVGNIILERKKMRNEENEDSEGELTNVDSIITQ

[9] = tested on: Plasmodium berghei; experiment: Antimalarial activity against Plasmodium berghei ANKA expressing GFP infected in mouse assessed as reduction in parasitemia at 100 mg/kg, po administered 24 hrs post-infection measured 48 hrs post-dosing by flow cytometric analysis; assay type: functional; parameters: scale not given: the % may be the effect or the level left
[10] = tested on: Heart; experiment: Cardiotoxicity against Sprague-Dawley rat Langendorff perfused heart assessed as intraventricular conduction time at 1 uM by electrophysiological analysis (reference value: 13.92 0.42 ms); assay type: toxicity, tissue-based
[11] = target: T1, Chloroquine resistance transporter (Plasmodium falciparum); experiment: Inhibition of chloroquine-resistant Plasmodium falciparum Dd2 CRT expressed in Xenopus laevis oocyte assessed as inhibition of [3H]chloroquine uptake at 100 uM measured from 1 to 2 hrs
[12] = tested on: Plasmodium berghei; experiment: Antimalarial activity against Plasmodium berghei ANKA expressing GFP infected in mouse assessed as mean survival days at 30 mg/kg, po administered 24 hrs post-infection (reference value: 6 to 7 days); assay type: functional
[13] = tested on: Salmonella typhimurium; experiment: Mutagenicity against Salmonella typhimurium TA100 assessed as revertants at 24 uM incubated for 90 mins followed by drug washout measured after 2 days relative to positive control; assay type: toxicity, organism-based; details: salmonella enterica subsp. enterica serovar typhimurium
[14] = tested on: Heart; experiment: Cardiotoxicity against Sprague-Dawley rat Langendorff perfused heart assessed as heart rate at 1 uM by electrophysiological analysis (reference value: 236.68 7.83 bpm); assay type: toxicity, tissue-based
[15] = Elimination half life in CD1 albino mouse plasma at 50 mg/kg, po measured from 6 to 48 hrs post-dosing; assay type: ADME, organism-based; parameters: dose 50 mg/kg, route oral; details: read-out: beta t1/2 (converted)
[16] = tested on: Salmonella typhimurium; experiment: Mutagenicity against Salmonella typhimurium TA100 assessed as revertants at 1.5 uM incubated for 90 mins followed by drug washout measured after 2 days relative to positive control; assay type: toxicity, organism-based; details: salmonella enterica subsp. enterica serovar typhimurium, 1.5 h
[17] = tested on: Heart; experiment: Cardiotoxicity against Sprague-Dawley rat Langendorff perfused heart assessed as cycle length time at 10 uM by electrophysiological analysis (reference value: 258.62 8.87 ms); assay type: toxicity, tissue-based
[18] = tested on: Heart; experiment: Cardiotoxicity against Sprague-Dawley rat Langendorff perfused heart assessed as QT time interval at 1 uM by electrophysiological analysis (reference value: 73.01 4.52 ms); assay type: toxicity, tissue-based
[19] = tested on: Plasmodium falciparum; experiment: Antiplasmodial activity against chloroquine-sensitive Plasmodium falciparum D10 infected in human RBC after 72 hrs by parasite lactate dehydrogenase assay; assay type: functional, organism-based; details: D10, 72 h
[20] = tested on: Liver; experiment: Drug uptake in CD1 albino mouse liver at 50 mg/kg, po at 2 to 6 hrs; assay type: ADME, organism-based; parameters: dose 50 mg/kg, route oral; details: in vivo
[21] = tested on: Heart; experiment: Cardiotoxicity against Sprague-Dawley rat Langendorff perfused heart assessed as intraventricular conduction time at 30 uM by electrophysiological analysis (reference value: 13.92 0.42 ms); assay type: toxicity, tissue-based
[22] = Inhibition of beta hematin formation assessed as molar equivalent of the compound required to inhibit 50 % beta-hematin formation after 18 hrs by spectrophotometric microassay relative to hemin; assay type: functional
[23] = tested on: Salmonella typhimurium; experiment: Mutagenicity against Salmonella typhimurium TA98 assessed as revertants at 1.5 uM incubated for 90 mins followed by drug washout measured after 2 days relative to positive control; assay type: toxicity, organism-based; details: salmonella enterica subsp. enterica serovar typhimurium, 1.5 h
[24] = tested on: Heart; experiment: Cardiotoxicity against Sprague-Dawley rat Langendorff perfused heart assessed as intraventricular conduction time at 10 uM by electrophysiological analysis (reference value: 13.92 0.42 ms); assay type: toxicity, tissue-based
[25] = tested on: Heart; experiment: Cardiotoxicity against Sprague-Dawley rat Langendorff perfused heart assessed as QT time interval at 10 uM by electrophysiological analysis (reference value: 73.01 4.52 ms); assay type: toxicity, tissue-based
[26] = tested on: Heart; experiment: Cardiotoxicity against Sprague-Dawley rat Langendorff perfused heart assessed as cycle length time at 1 uM by electrophysiological analysis (reference value: 258.62 8.87 ms); assay type: toxicity, tissue-based
[27] = tested on: Plasmodium berghei; experiment: Antimalarial activity against Plasmodium berghei ANKA expressing GFP infected in mouse assessed as cure from infection at 30 mg/kg, po administered at 6,24,48 and 72 hrs post-infection measured on day 30; assay type: functional, organism-based; parameters: dose 30 mg/kg
[28] = tested on: Heart; experiment: Cardiotoxicity against Sprague-Dawley rat Langendorff perfused heart assessed as QT time interval at 0.1 uM by electrophysiological analysis (reference value: 73.01 4.52 ms); assay type: toxicity, tissue-based
[29] = tested on: Plasmodium berghei; experiment: Antimalarial activity against Plasmodium berghei ANKA expressing GFP infected in mouse assessed as cure from infection at 30 mg/kg, po administered 24 hrs post-infection measured on day 30; assay type: functional, organism-based; parameters: dose 30 mg/kg
[30] = tested on: Salmonella typhimurium; experiment: Mutagenicity against Salmonella typhimurium TA100 assessed as revertants at 48 uM incubated for 90 mins followed by drug washout measured after 2 days relative to positive control; assay type: toxicity, organism-based; details: salmonella enterica subsp. enterica serovar typhimurium
[31] = (§1) Cardiotoxicity against Sprague-Dawley rat Langendorff perfused heart assessed as reduction in left ventricular pressure by electrophysiological analysis; assay type: toxicity, tissue-based; details: Sprague-Dawley, Langendorff perfused heart
[32] = tested on: Heart; experiment: as §1; assay type: toxicity, tissue-based
[33] = tested on: Plasmodium berghei; experiment: Antimalarial activity against Plasmodium berghei ANKA expressing GFP infected in mouse assessed as mean survival days at 100 mg/kg, po administered 24 hrs post-infection (reference value: 6 to 7 days); assay type: functional
[34] = Clearance in CD1 albino mouse at 50 mg/kg, po; assay type: ADME, organism-based; parameters: dose 50 mg/kg, route oral; details: in vivo

## Clc1ccc(C(Nc2ccnc3cc(Cl)ccc23)c2ccc(CN3CCNCC3)cc2)cc1 (racemic)
[1]
  CC50 at 24 h: 1800 nM
[2]
  Vd/F: 153 L/kg
[3]
  MSD: 29 days
[4]
  half-life: 29 h
[5]
  MSD: 29.6 days
[6]
  Activity: 99.8%
[7]
  Drug uptake: Active
[8]
  inhibition: inactive
[9]
  Activity: 99.5%
[10]
  Time: 14.18 ms
[11]
  inhibition: Active
[12]
  MSD: 15.8 days
[13]
  Activity: 27%
[14]
  Activity: 233.54 bpm
[15]
  half-life: 22 h
[16]
  Activity: 19%
[17]
  Time: 294 ms
[18]
  Time: 76.5 ms
[19]
  IC50: 62 nM
[20]
  Drug uptake: Active
[21]
  Time: 22.67 ms
[22]
  inhibition: Dose-dependent effect
[23]
  Activity: 2%
[24]
  Time: 17 ms
[25]
  Time: 94.5 ms
[26]
  Time: 260.13 ms
[27]
  Activity: inactive
[28]
  Time: 74 ms
[29]
  Activity: inactive
[30]
  Activity: 28%
[31]
  IC50: 9500 nM
[32]
  Activity: Dose-dependent effect
[33]
  MSD: 28.8 days
[34]
  CL/F: 82 mL/min/kg

— ChEMBL document CHEMBL2169878 (J Med Chem, 2012)
